# In patent US8952024B2, “Herbicidal pyrimidone derivatives” (E I du Pont de Nemours and Company, priority 2009, dated 2015):
# Key:
# Assay type in all cases: in vivo
# [1] = test system: morningglory (Ipomoea spp.); test: Test A pre-/postemergence plant response
# Procedure, shortened: (§1)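 Visual injury rating on a 0–100 scale (0 = no effect, 100 = complete control) was made versus untreated controls after about ten days in the greenhouse. Compounds, formulated in a non-phytotoxic solvent mix containing surfactant, were sprayed preemergence onto loam/sand soil and postemergence onto one- to two-leaf plants.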
# corn (Zea mays) = test: Test A pre-/postemergence plant response
# Procedure, shortened: as §1
# [2] = test system: large crabgrass (Digitaria sanguinalis); test: Test A pre-/postemergence plant response
# Procedure, shortened: as §1
# [3] = test system: wheat (Triticum aestivum); test: Test A pre-/postemergence plant response
# Procedure, shortened: as §1
# [4] = test system: barnyardgrass (Echinochloa crus-galli); test: Test A pre-/postemergence plant response
# Procedure, shortened: as §1
# [5] = test system: velvetleaf (Abutilon theophrasti); test: Test A pre-/postemergence plant response
# Procedure, shortened: as §1
# [6] = test system: pigweed (Amaranthus retroflexus); test: Test A pre-/postemergence plant response
# Procedure, shortened: as §1
# [7] = test system: giant foxtail (Setaria faberii); test: Test A pre-/postemergence plant response
# Procedure, shortened: as §1
# [8] = test system: ducksalad (Heteranthera limosa); test: Test B flooded paddy test; conditions: for Plant response rating, Flood, Ducksalad: 250 g ai/ha, flooded paddy test, visual rating on 0 to 100 scale (0 no effect, 100 complete control) after 13 to 15 days; for Plant response rating, Ducksalad: Flood (flooded paddy test), 13 to 15 days; for Ducksalad plant response rating: Flood, 31 g ai/ha, scale 0 to 100 (0 no effect, 100 complete control)
# Procedure, shortened: (§2)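 Seedlings reaching 2 leaves are flooded 3 cm deep; test material is delivered to that water, which stays at the same depth. Plants remain in a greenhouse 13–15 days and are then scored by eye versus controls from 0 to 100.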
# [9] = test system: umbrella sedge (Cyperus difformis); test: Test B flooded paddy test; conditions: for Plant response rating, Flood, Sedge, Umbrella: 250 g ai/ha, flooded paddy test, visual rating on 0 to 100 scale (0 no effect, 100 complete control) after 13 to 15 days; for Plant response rating, Sedge, Umbrella: Flood (flooded paddy test), 13 to 15 days; for Sedge, Umbrella plant response rating: Flood, 31 g ai/ha, scale 0 to 100 (0 no effect, 100 complete control)
# Procedure, shortened: as §2
# rice (Oryza sativa) = test: Test B flooded paddy test; conditions: for Plant response rating, Flood, Rice: 250 g ai/ha, flooded paddy test, visual rating on 0 to 100 scale (0 no effect, 100 complete control) after 13 to 15 days; for Plant response rating, Rice: Flood (flooded paddy test), 13 to 15 days; for Rice plant response rating: Flood, 31 g ai/ha, scale 0 to 100 (0 no effect, 100 complete control)
# Procedure, shortened: as §2
# [10] = test system: barnyardgrass (Echinochloa crus-galli); test: Test B flooded paddy test; conditions: for Plant response rating, Flood, Barnyardgrass: 250 g ai/ha, flooded paddy test, visual rating on 0 to 100 scale (0 no effect, 100 complete control) after 13 to 15 days; for Plant response rating, Barnyardgrass: Flood (flooded paddy test), 13 to 15 days; for Barnyardgrass plant response rating: Flood, 31 g ai/ha, scale 0 to 100 (0 no effect, 100 complete control)
# Procedure, shortened: as §2
# [11] = Postemergence, 125 g ai/ha, 0 to 100 scale where 0 is no effect and 100 is complete control
# [12] = Postemergence, 500 g ai/ha, 0 to 100 scale, 0 = no effect, 100 = complete control, approx. ten days
# [13] = Preemergence, 500 g ai/ha, visual injury, 0 to 100 scale (0 no effect, 100 complete control), approx. ten days
# [14] = Preemergence, 125 g ai/ha, 0 to 100 scale, 0 = no effect, 100 = complete control
# [15] = 62 g ai/ha, scale of 0 to 100 where 0 is no effect and 100 is complete control
# [16] = Postemergence, 500 g ai/ha, visual injury, 0 to 100 scale (0 no effect, 100 complete control), approx. ten days
# [17] = Preemergence, 500 g ai/ha, 0 to 100 scale, 0 = no effect, 100 = complete control
# [18] = 125 g ai/ha, scale 0 to 100, 0 is no effect, 100 is complete control
smiles,measurement,setting,value
CCCn1c(-c2cccs2)ncc(C(=O)C2=C(O)CCCC2=O)c1=O [Compound 77],"Plant response rating, Morningglory",[1]; [11],90
same,"Plant response rating, Morningglory",[1]; [12],100
same,"Plant response rating, Morningglory",[1]; [13],70
same,"Plant response rating, Corn",corn (Zea mays); [11],0
same,"Plant response rating, Corn",corn (Zea mays); [12],20
same,"Plant response rating, Corn",corn (Zea mays); [14],0
same,"Plant response rating, Corn",corn (Zea mays); [13],0
same,"Plant response rating, Crabgrass, Large",[2]; [11],60
same,"Plant response rating, Crabgrass, Large",[2]; [12],80
same,"Plant response rating, Crabgrass, Large",[2]; [14],50
same,"Plant response rating, Crabgrass, Large",[2]; [13],90
same,"Plant response rating, Wheat",[3]; [11],0
same,"Plant response rating, Wheat",[3]; [12],0
same,"Plant response rating, Wheat",[3]; [14],0
same,"Plant response rating, Wheat",[3]; [13],0
same,"Plant response rating, Barnyardgrass",[4]; [11],80
same,"Plant response rating, Barnyardgrass",[4]; [12],90
same,"Plant response rating, Barnyardgrass",[4]; [14],20
same,"Plant response rating, Barnyardgrass",[4]; [13],50
same,"Plant response rating, Velvetleaf",[5]; [11],100
same,"Plant response rating, Velvetleaf",[5]; [12],100
same,"Plant response rating, Velvetleaf",[5]; [14],70
same,"Plant response rating, Velvetleaf",[5]; [13],100
same,"Plant response rating, Pigweed",[6]; [11],100
same,"Plant response rating, Pigweed",[6]; [12],100
same,"Plant response rating, Pigweed",[6]; [14],80
same,"Plant response rating, Pigweed",[6]; [13],90
same,"Plant response rating, Foxtail, Giant",[7]; [11],50
same,"Plant response rating, Foxtail, Giant",[7]; [12],70
same,"Plant response rating, Foxtail, Giant",[7]; [14],0
same,"Plant response rating, Foxtail, Giant",[7]; [13],20
same,"Plant response rating, Flood, Ducksalad",[8],40
same,"Plant response rating, Ducksalad",[8]; [15],30
same,"Plant response rating, Flood, Sedge, Umbrella",[9],40
same,"Plant response rating, Sedge, Umbrella",[9]; [15],40
same,"Plant response rating, Flood, Rice",rice (Oryza sativa),15
same,"Plant response rating, Rice",rice (Oryza sativa); [15],0
same,"Plant response rating, Flood, Barnyardgrass",[10],65
same,"Plant response rating, Barnyardgrass",[10]; [15],30
O=C1CCCC(O)=C1C(=O)c1cnc(-c2ccccc2)n(C2CCSCC2)c1=O [Compound 164],"Plant response rating, Morningglory",[1]; [11],100
same,Morningglory plant response rating,[1]; [16],100
same,"Plant response rating, Morningglory",[1]; [14],10
same,"Plant response rating, Morningglory",[1]; [17],50
same,"Plant response rating, Corn",corn (Zea mays); [11],10
same,Corn plant response rating,corn (Zea mays); [16],50
same,"Plant response rating, Corn",corn (Zea mays); [14],0
same,"Plant response rating, Corn",corn (Zea mays); [17],0
same,"Plant response rating, Crabgrass, Large",[2]; [11],90
same,"Crabgrass, Large plant response rating",[2]; [16],100
same,"Plant response rating, Crabgrass, Large",[2]; [14],30
same,"Plant response rating, Crabgrass, Large",[2]; [17],90
same,"Plant response rating, Wheat",[3]; [11],0
same,Wheat plant response rating,[3]; [16],20
same,"Plant response rating, Wheat",[3]; [14],0
same,"Plant response rating, Wheat",[3]; [17],0
same,"Plant response rating, Barnyardgrass",[4]; [11],100
same,Barnyardgrass plant response rating,[4]; [16],100
same,"Plant response rating, Barnyardgrass",[4]; [14],10
same,"Plant response rating, Barnyardgrass",[4]; [17],80
same,"Plant response rating, Velvetleaf",[5]; [11],100
same,Velvetleaf plant response rating,[5]; [16],100
same,"Plant response rating, Velvetleaf",[5]; [14],40
same,"Plant response rating, Velvetleaf",[5]; [17],70
same,"Plant response rating, Pigweed",[6]; [11],100
same,Pigweed plant response rating,[6]; [16],100
same,"Plant response rating, Pigweed",[6]; [14],60
same,"Plant response rating, Pigweed",[6]; [17],100
same,"Plant response rating, Foxtail, Giant",[7]; [11],100
same,"Foxtail, Giant plant response rating",[7]; [16],100
same,"Plant response rating, Foxtail, Giant",[7]; [14],40
same,"Plant response rating, Foxtail, Giant",[7]; [17],70
same,"Plant response rating, Flood, Ducksalad",[8],85
same,"Plant response rating, Ducksalad",[8]; [15],0
same,"Plant response rating, Ducksalad",[8]; [18],0
same,Ducksalad plant response rating,[8],0
same,"Plant response rating, Flood, Sedge, Umbrella",[9],90
same,"Plant response rating, Sedge, Umbrella",[9]; [15],0
same,"Plant response rating, Sedge, Umbrella",[9]; [18],0
same,"Sedge, Umbrella plant response rating",[9],0
same,"Plant response rating, Flood, Rice",rice (Oryza sativa),35
same,"Plant response rating, Rice",rice (Oryza sativa); [15],0
same,"Plant response rating, Rice",rice (Oryza sativa); [18],20
same,Rice plant response rating,rice (Oryza sativa),0
same,"Plant response rating, Flood, Barnyardgrass",[10],0
same,"Plant response rating, Barnyardgrass",[10]; [15],0
same,"Plant response rating, Barnyardgrass",[10]; [18],0
same,Barnyardgrass plant response rating,[10],0
COCCn1c(-c2ccsc2)ncc(C(=O)C2=C(O)C3CCC(C3)C2=O)c1=O (stereo not drawn) [Compound 228],"Plant response rating, Morningglory",[1]; [11],100
same,Morningglory plant response rating,[1]; [16],100
same,"Plant response rating, Morningglory",[1]; [14],70
same,"Plant response rating, Morningglory",[1]; [17],80
same,"Plant response rating, Corn",corn (Zea mays); [11],50
same,Corn plant response rating,corn (Zea mays); [16],90
same,"Plant response rating, Corn",corn (Zea mays); [14],0
same,"Plant response rating, Corn",corn (Zea mays); [17],50
same,"Plant response rating, Crabgrass, Large",[2]; [11],90
same,"Crabgrass, Large plant response rating",[2]; [16],100
same,"Plant response rating, Crabgrass, Large",[2]; [14],100
same,"Plant response rating, Crabgrass, Large",[2]; [17],100
same,"Plant response rating, Wheat",[3]; [11],0
same,Wheat plant response rating,[3]; [16],20
same,"Plant response rating, Wheat",[3]; [14],0
same,"Plant response rating, Wheat",[3]; [17],0
same,"Plant response rating, Barnyardgrass",[4]; [11],90
same,Barnyardgrass plant response rating,[4]; [16],90
same,"Plant response rating, Barnyardgrass",[4]; [14],40
same,"Plant response rating, Barnyardgrass",[4]; [17],100
same,"Plant response rating, Velvetleaf",[5]; [11],100
same,Velvetleaf plant response rating,[5]; [16],100
same,"Plant response rating, Velvetleaf",[5]; [14],100
same,"Plant response rating, Velvetleaf",[5]; [17],100
same,"Plant response rating, Pigweed",[6]; [11],100
same,Pigweed plant response rating,[6]; [16],100
same,"Plant response rating, Pigweed",[6]; [14],100
same,"Plant response rating, Pigweed",[6]; [17],100
same,"Plant response rating, Foxtail, Giant",[7]; [11],90
same,"Foxtail, Giant plant response rating",[7]; [16],90
same,"Plant response rating, Foxtail, Giant",[7]; [14],50
same,"Plant response rating, Foxtail, Giant",[7]; [17],90
same,"Plant response rating, Flood, Ducksalad",[8],80
same,"Plant response rating, Ducksalad",[8]; [15],50
same,"Plant response rating, Ducksalad",[8]; [18],75
same,Ducksalad plant response rating,[8],40
same,"Plant response rating, Flood, Sedge, Umbrella",[9],85
same,"Plant response rating, Sedge, Umbrella",[9]; [15],75
same,"Plant response rating, Sedge, Umbrella",[9]; [18],75
same,"Sedge, Umbrella plant response rating",[9],65
same,"Plant response rating, Flood, Rice",rice (Oryza sativa),60
same,"Plant response rating, Rice",rice (Oryza sativa); [15],20
same,"Plant response rating, Rice",rice (Oryza sativa); [18],35
same,Rice plant response rating,rice (Oryza sativa),0
same,"Plant response rating, Flood, Barnyardgrass",[10],80
same,"Plant response rating, Barnyardgrass",[10]; [15],40
same,"Plant response rating, Barnyardgrass",[10]; [18],75
same,Barnyardgrass plant response rating,[10],15
